Reference: PMC12503911, “Cytotoxicity of Atropisomeric [1,1′‐Binaphthalene]‐2,2′‐Diamines (BINAM) and Analogs in Human Cancer Cells: Enantioselectivity, Structure–Activity Relationships, and Mechanism” (Chemmedchem, 2025)

Tests used:
ASK1 [1] = target: T1, ASK1 (Homo sapiens, UniProt Q99683); experiment: […]PanQinase radiometric kinase assay (Reaction Biology); type: biochemical; details: read-out: Residual activities [% of control] / 1(R) 10 μM
T1 construct: gene MAP3K5
T1 sequence (Q99683 1-1374): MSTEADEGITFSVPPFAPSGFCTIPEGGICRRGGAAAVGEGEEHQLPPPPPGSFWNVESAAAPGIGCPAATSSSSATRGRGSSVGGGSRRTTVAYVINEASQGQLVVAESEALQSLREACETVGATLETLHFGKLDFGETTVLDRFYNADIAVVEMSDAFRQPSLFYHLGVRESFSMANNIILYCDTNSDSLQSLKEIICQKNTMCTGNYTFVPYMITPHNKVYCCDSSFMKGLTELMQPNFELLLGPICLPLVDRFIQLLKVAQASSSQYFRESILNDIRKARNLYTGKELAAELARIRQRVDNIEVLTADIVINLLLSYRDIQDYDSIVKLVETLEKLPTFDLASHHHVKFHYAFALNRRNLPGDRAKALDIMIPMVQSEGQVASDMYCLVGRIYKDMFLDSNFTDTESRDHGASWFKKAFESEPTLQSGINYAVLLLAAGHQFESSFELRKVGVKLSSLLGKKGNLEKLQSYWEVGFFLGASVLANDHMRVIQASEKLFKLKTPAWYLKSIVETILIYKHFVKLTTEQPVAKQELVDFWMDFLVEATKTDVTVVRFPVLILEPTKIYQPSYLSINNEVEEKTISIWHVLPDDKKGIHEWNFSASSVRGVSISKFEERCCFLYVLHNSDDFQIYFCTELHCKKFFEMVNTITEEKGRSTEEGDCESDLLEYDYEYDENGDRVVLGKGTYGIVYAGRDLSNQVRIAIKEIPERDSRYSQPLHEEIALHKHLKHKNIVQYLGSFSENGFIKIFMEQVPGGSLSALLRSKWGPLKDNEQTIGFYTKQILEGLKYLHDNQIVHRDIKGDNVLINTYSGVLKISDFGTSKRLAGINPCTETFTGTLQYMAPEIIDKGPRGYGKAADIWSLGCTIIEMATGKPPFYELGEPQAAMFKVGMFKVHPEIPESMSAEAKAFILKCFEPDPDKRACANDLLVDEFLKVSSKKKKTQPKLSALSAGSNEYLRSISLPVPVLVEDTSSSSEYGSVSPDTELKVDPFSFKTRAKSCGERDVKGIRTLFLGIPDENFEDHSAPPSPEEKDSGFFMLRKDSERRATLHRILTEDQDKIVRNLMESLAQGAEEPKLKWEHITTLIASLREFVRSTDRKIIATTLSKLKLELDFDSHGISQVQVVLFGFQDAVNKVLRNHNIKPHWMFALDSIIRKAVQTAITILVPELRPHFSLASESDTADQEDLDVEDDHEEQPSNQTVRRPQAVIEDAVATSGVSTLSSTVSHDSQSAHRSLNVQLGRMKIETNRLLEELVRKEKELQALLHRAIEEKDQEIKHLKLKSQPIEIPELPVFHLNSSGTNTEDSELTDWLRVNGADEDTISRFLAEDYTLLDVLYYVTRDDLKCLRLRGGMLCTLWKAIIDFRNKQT

AuroraA = target: T2, AuroraA (Homo sapiens, UniProt O14965); experiment: as above; type: biochemical; details: read-out: Residual activities [% of control] / 1(R) 10 μM
T2 construct: gene AURKA
T2 sequence (O14965 1-403): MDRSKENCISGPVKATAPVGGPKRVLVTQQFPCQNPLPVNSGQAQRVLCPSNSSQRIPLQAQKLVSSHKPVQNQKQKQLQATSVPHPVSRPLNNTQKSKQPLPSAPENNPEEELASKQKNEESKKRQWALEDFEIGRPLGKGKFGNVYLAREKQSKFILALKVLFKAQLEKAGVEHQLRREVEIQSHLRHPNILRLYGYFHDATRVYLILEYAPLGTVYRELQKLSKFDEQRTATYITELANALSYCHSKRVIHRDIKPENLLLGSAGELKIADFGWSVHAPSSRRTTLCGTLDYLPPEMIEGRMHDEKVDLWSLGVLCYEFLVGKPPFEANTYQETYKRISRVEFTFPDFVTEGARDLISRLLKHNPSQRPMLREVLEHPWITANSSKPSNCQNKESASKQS

ASK1 [2] = target: T1, ASK1; experiment: biochemical; parameters: 33PanQinase radiometric kinase activity assay, residual activity in % of control, contract lab Reaction Biology; details: mean of intraexperimental duplicates, n = 1; read-out: Residual activities [% of control] / 1(S) 10 µM

SMILES | remaining activity at 10 µM (ASK1 [1]) [%] | remaining activity at 10 µM (AuroraA) [%] | remaining activity at 10 µM (ASK1 [2]) [%]
Nc1ccc2ccccc2c1-c1c(N)ccc2ccccc12 [1(R), (R)‐[1,1′‐binaphthalene]‐2,2′‐diamine] | 90 | 86 | –
Nc1ccc2ccccc2c1-c1c(N)ccc2ccccc12 [1(S), S‐BINAM] | – | – | 117
